How the values were obtained:
Assay type in all cases: cell-based, human
iPSC-derived RPE cells = assay: Sensitivity of iPSC-derived RPE cells to proteotoxic stressors in 384-well plates; conditions: conc. 10 μM, signals measured four days after the treatment, FIG. 29
Protocol: FIG. 29 is a bar graph showing the sensitivity of iPSC-derived RPE cells to various proteotoxic stressors. RPE cells differentiated from the reporter iPS cell line were grown in 384-well plates and treated with indicated stressors (conc. 10 μM). […] signals were measured four days after the treatment.

iPSC-derived RPE = assay: Intracellular calcium measurements and electrophysiology of iPSC-derived RPE monolayers
Protocol: Intracellular Calcium Measurements and Electrophysiology: To assess calcium signaling in the RPE cells: ATP (200 μM; Sigma) and Cyclopiazonic Acid (CPA; 10 μM; EMD Millipore); (see Maminishkis et al., Invest. Ophthal. Vis. Sci. 47(8):3612-3624, 2006); Quinn et al., Invest. Ophthal. Vis. Sci. 33(13):3513-3527, 1992).
(§1) Calomel electrodes in series with Ringer solutions and agar bridges were used to measure the transepithelial potential (TEP). The signals from intracellular microelectrodes were referenced to the basal bath to measure the apical and basal membrane potentials, VA and VB, where TEP=VB−VA. The total transepithelial resistance (Rt), and the ratio of the apical to basolateral membrane resistance (RA/RB) were obtained by passing 2-4 μA current pulses (peak to peak) across the tissue and measuring the resultant changes in TEP, VA and VB. See Maminishkis et al. supra and Quinn et al., supra for details.

[1] = system: iPSC derived retinal pigment epithelial cells; assay: Aphidicolin treatment of iPSC-derived RPE: polarization, electrophysiology and phenotype
Source text: as §1
Aphidicolin is a reversible inhibitor of eukaryotic nuclear DNA replication that blocks the cell cycle at early S phase. Its structure is that of a tetracyclic small molecule. […] It causes committed RPE cells to further mature and form fully-differentiated and highly polarized tissue monolayers (see FIGS. 30-31). Aphidicolin is dissolved in fourth medium and RPE cells are cultured in it for 6-8 weeks before analysis is done.

reporter iPSC line = assay: GFP reporter signal / FACS analysis of RPE differentiation from reporter iPSC line; conditions: NAW versus NA, FIG. 17
Source text: To optimize the protocol for iPSC to RPE differentiation, a reporter iPSC line was created. This reporter line constitutively expresses a red fluorescent protein, whose expression is controlled by ubiquitin gene promoter. The reporter iPSC line also expresses a green fluorescent protein (GFP), specifically when differentiated in to RPE lineage (FIG. 1-3). The RPE-specific enhancer of the gene Tyrosinase controls GFP expression in this iPSC line (FIG. 1). The first goal was to confirm that the GFP expression truly represents RPE lineage. To achieve this, iPSC line were differentiated using published differentiation protocols and characterized those differentiated cells using molecular and physiological assays. These assays are disclosed in FIGS. 22-24. FIG. 2 describes a simple schematic drawing of iPSC-RPE differentiation. When the reporter iPSC were differentiated into RPE, approximately 28 days into differentiation, GFP positive cells are present (FIG. 3A). […] GFP positive and negative cells were sorted by flow cytometry and the expression of several RPE-specific genes was analyzed, shown in FIG. 4.
Activin A induces RPE differentiation from ES cells. […] When quantified by FACS analysis, NA treatment produced only 22% GFP positive cells, whereas NAW treatment produced 52% GFP positive cells (FIG. 17, bottom panel).

iPSCs [2] = assay: RPE differentiation from iPSCs scored by pigmented cells
Protocol: Transfer cells to Retinal Media (RM) plus Nicotinamide, Activin, and Wnt3a (NAW). Change media every other day (eg. Mon, Wed, and Fri) for 3 weeks.
Next, the effect of the concentration of knockout serum replacement (KSR) on RPE differentiation was tested.
Activin A induces RPE differentiation from ES cells. In animal models, canonical WNT (WNT3a) is important for RPE differentiation. It was hypothesized that a combination of activin A and WNT3a would be effective for the induction of RPE differentiation from iPSCs. A combination of these two factors was tested at the optic vesicle stage. Cells were moved from the RDM medium to medium containing either activin A (NA) only or activin A plus WNT3a (NAW). […] Because this differentiation process was started with the reporter iPSC lines, the increase in the number of RPE cell was confirmed by comparing the GFP signal between the two treatments. […] When quantified by FACS analysis, NA treatment produced only 22% GFP positive cells, whereas NAW treatment produced 52% GFP positive cells (FIG. 17, bottom panel).

iPSCs [3] = assay: Quantitative gene expression of Pax6 and Mitf during eye-field/optic vesicle differentiation; conditions: 50 ng/ml Noggin with dual inhibition of WNT pathway and inhibition of FGF pathway
Protocol: After 48 hours of floating EB cultures they are plated onto MATRIGEL® coated plates in RDM medium. It was investigated whether the number of EBs plated/well affects differentiation of iPSCs into RPE. […] RDM medium was used for 3 weeks with change of medium on cells every Monday, Wednesday, and Friday Inhibition of Nodal, BMP, and WNT pathways can be important for differentiation of stem cells into eye-field cells. To inhibit the nodal pathway, the inhibitor SB431542 was used. To inhibit the activity of BMP pathway, various concentrations of Noggin, a BMP inhibitor, were tested. For WNT pathway inhibition, a combination of biological Wnt inhibitor DKK1 and a small molecule inhibitor of the WNT pathway CK1-7 were used.
Results have shown that inhibition of FGF signaling is important for RPE development. Therefore, the activity of FGF signaling pathway was modulated by either changing its concentration or/and by adding FGF inhibitor (PD 0325901) to the medium. The results were scored weekly by quantitative gene expression measurements of two transcription factors Pax6 and Mitf which are the master regulators of RPE differentiation (FIGS. 8-13). In addition, GFP expression was scored after six weeks as a direct measure of induction of RPE cells (FIG. 14).

[4] = aphidicolin treated RPE cells, FIG. 31

With `C/C=C(/C)C(=O)O[C@H]1C(C)=C2[C@H]([C@@H]1OC(=O)CCCCCCC)[C@@](C)(OC(C)=O)C[C@H](OC(=O)CCC)[C@@]1(O)[C@H]2OC(=O)[C@@]1(C)O` [Thapsigargin] the “effect on RPE phenotype (GFP signal)” value (iPSC-derived RPE cells) was “affected RPE phenotype”.

`Nc1ncnc2c1ncn2[C@@H]1O[C@H](COP(=O)(O)OP(=O)(O)OP(=O)(O)O)[C@@H](O)[C@H]1O` [ATP] was tested, and the intracellular calcium response (iPSC-derived RPE; apical application, FIG. 26C) was “typical bi-phasic response” and the “basolateral membrane potential response” value (iPSC-derived RPE; applied to the apical membrane, FIG. 26D) was “significantly depolarizes the basolateral membrane”.

In the case of `CNc1ccc2oc(C[C@H]3O[C@@]4(CC[C@H]3C)O[C@H]([C@H](C)C(=O)c3ccc[nH]3)[C@H](C)C[C@H]4C)nc2c1C(=O)O` [A23187], the “effect on RPE phenotype (GFP signal)” value (iPSC-derived RPE cells) is reported as “affected RPE phenotype”.

For `C[C@@]1(CO)[C@H](O)CC[C@@]2(C)[C@H]1CC[C@H]1C[C@@H]3C[C@@]12CC[C@]3(O)CO` [Aphidicolin], the membrane potential [1, 4] was “higher”, the “physiological responses (hyperpolarization to low potassium or ATP on the apical side)” value [1, 4] was “better physiological responses” and the transepithelial resistance [1, 4] was “higher”. The “apical process / polarization of RPE cells” value ([1]; compared to non-treated cells, FIG. 30) was “more extensive apical process” and the “RPE phenotype of iPS cell derived RPE on artificial membranes/scaffolds” value ([1]; cultured 6-8 weeks in fourth medium with aphidicolin) was “improves their RPE phenotype”.

`O=CC[C@@H](O)[C@H](O)[C@H](O)CO` [2-Deoxy-D-Glucose] was tested, and the “effect on RPE phenotype (GFP signal)” value (iPSC-derived RPE cells) was “affected RPE phenotype”.

B1: WNT3a: canonical WNT signaling regulator (protein, UniProt P56704 19-352, looked up)
Protein Wnt-3a: SYPIWWSLAVGPQYSSLGSQPILCASIPGLVPKQLRFCRNYVEIMPSVAEGIKIGIQECQHQFRGRRWNCTTVHDSLAIFGPVLDKATRESAFVHAIASAGVAFAVTRSCAEGTAAICGCSSRHQGSPGKGWKWGGCSEDIEFGGMVSREFADARENRPDARSAMNRHNNEAGRQAIASHMHLKCKCHGLSGSCEVKTCWWSQPDFRAIGDFLKDKYDSASEMVVEKHRESRGWVETLRPRYTYFKVPTERDLVYYEASPNFCEPNPETGSFGTRDRTCNVSSHGIDGCDLLCCGRGHNARAERRREKCRCVFHWCCYVSCQECTRVYDVHTCK
With B1 the “number of GFP positive cells in differentiating iPSC cultures” value (reporter iPSC line) was “significantly increases the number of GFP positive cells”, the “number of pigmented cells per dish” value (iPSCs [2]; activin A plus WNT3a (NAW) versus activin A only (NA), FIG. 16) was “significantly increased the number of pigmented cells per dish” and the RPE differentiation efficiency (iPSCs [2]; addition of WNT3a to Retinal Media with Nicotinamide and Activin) was “significantly increased the RPE differentiation efficiency”.

B2: Noggin: a BMP inhibitor, protein encoded by the NOG gene (protein, UniProt Q13253 28-232, looked up)
Noggin: QHYLHIRPAPSDNLPLVDLIEHPDPIFDPKEKDLNETLLRSLLGGHYDPGFMATSPPEDRPGGGGGAAGGAEDLAELDQLLRQRPSGAMPSEIKGLEFSEGLAQGKKQRLSKKLRRKLQMWLWSQTFCPVLYAWNDLGSRFWPRYVKVGSCFSKRSCSVPEGMVCKPSKSVHLTVLRWRCQRRGGQRCGWIPIQYPIISECKCSC
In the case of B2, the “expression of Pax6 and Mitf during the three weeks” value (iPSCs [3]) is reported as “significantly and progressively improve the expression of Pax6 and Mitf”.
